Among the data in BindingDB's records for doi:10.1074/jbc.M113.479717 (University of Manchester, 2013) are Kd values, retold here.

Test in all cases: Optical Titration Assay
Details in all cases: pH 7

The target in test [1] is T1, Bifunctional cytochrome P450/NADPH--P450 reductase (Bacillus megaterium, UniProt P14779).
T1 sequence (P14779 whole entry): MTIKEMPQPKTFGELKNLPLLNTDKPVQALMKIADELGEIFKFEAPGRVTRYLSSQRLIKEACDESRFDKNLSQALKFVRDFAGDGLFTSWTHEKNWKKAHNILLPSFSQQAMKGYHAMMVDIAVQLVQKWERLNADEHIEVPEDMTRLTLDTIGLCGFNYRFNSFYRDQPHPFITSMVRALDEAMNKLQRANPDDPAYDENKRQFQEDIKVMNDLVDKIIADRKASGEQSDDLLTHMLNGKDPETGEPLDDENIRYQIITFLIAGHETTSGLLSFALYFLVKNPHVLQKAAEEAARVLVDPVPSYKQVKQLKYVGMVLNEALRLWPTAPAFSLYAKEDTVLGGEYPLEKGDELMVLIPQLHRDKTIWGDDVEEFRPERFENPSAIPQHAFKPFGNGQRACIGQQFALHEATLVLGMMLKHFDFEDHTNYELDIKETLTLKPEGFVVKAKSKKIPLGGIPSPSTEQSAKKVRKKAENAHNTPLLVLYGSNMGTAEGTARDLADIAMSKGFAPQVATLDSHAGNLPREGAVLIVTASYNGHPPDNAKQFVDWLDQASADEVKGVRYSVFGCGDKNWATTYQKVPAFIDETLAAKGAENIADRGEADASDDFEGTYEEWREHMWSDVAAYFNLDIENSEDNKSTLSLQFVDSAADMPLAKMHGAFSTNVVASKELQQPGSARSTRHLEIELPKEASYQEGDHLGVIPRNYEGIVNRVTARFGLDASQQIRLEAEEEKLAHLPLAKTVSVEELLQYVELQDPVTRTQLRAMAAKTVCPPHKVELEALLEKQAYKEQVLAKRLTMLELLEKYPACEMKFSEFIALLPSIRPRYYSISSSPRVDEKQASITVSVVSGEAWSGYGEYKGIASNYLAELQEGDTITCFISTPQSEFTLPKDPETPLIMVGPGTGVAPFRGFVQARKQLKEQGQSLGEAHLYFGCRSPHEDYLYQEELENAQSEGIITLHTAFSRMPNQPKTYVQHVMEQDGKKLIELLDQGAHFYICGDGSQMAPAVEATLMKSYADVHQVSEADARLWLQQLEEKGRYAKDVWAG
Here is the method: (§1) Dissociation constants (Kd values) for binding of the substrates N-palmitoylglycine (NPG) and omeprazole (OMP) to WT and mutant BM3 heme domains were determined by UVvisible absorption titrations using ~1-4 μM protein in 100mMKPi, pH 7.0, at 25 °C (assay buffer) in 1-cm path length quartz cuvettes and as in our previous studies. Spectra were recorded for substrate-free enzymes and following addition of ligands during substrate titrations (typically 800 to 250 nm).

In test [2] the target is Bifunctional cytochrome P450/NADPH--P450 reductase [F87V] (Bacillus megaterium, UniProt P14779, F87V). On the procedure:
as §1

The target of test [3] is Bifunctional cytochrome P450/NADPH--P450 reductase [A82F,F87V] (Bacillus megaterium, UniProt P14779, A82F/F87V). On the procedure:
as §1

Test [4] concerns the target Bifunctional cytochrome P450/NADPH--P450 reductase [A82F] (Bacillus megaterium, UniProt P14779, A82F). On the procedure: as §1

Bifunctional cytochrome P450/NADPH--P450 reductase [A82F,F87V], sequence (P14779 whole entry A83F/F88V): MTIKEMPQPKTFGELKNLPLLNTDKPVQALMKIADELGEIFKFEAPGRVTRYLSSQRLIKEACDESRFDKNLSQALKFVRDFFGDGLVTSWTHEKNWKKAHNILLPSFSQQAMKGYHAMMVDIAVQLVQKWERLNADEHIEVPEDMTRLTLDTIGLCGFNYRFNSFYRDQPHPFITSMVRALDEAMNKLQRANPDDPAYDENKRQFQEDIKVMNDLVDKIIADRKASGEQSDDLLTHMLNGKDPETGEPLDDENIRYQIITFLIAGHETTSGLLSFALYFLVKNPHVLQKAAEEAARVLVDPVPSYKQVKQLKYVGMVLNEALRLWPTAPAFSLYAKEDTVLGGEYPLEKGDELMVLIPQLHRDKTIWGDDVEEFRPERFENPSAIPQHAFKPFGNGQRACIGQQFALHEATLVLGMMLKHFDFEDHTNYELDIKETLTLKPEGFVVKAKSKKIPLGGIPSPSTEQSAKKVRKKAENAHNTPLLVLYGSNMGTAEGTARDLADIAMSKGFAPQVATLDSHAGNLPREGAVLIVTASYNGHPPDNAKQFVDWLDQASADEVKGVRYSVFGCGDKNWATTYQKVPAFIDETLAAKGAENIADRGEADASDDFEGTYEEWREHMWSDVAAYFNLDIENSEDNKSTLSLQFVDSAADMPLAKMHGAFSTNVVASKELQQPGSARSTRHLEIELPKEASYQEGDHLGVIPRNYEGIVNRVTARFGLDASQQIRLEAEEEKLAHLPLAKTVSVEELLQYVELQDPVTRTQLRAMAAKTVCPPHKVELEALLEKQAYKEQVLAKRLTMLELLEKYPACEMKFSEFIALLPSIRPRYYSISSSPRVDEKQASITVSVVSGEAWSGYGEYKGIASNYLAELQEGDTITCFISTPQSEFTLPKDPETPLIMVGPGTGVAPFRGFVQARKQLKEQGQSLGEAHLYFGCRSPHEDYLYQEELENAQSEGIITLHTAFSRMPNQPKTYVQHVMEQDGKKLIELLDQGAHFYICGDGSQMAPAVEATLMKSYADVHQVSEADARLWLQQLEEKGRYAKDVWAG
Bifunctional cytochrome P450/NADPH--P450 reductase [A82F], sequence (P14779 whole entry A83F): as the sequence (P14779 whole entry A83F/F88V) above, with V88F counted along it
Bifunctional cytochrome P450/NADPH--P450 reductase [F87V], sequence (P14779 whole entry F88V): as the sequence (P14779 whole entry A83F/F88V) above, with F83A counted along it

On to `CCCCCCCCCCCCCCCC(=O)NCC(=O)O` [N-palmitoylglycine (NPG)], for which the equilibrium dissociation constant (Kd) in test [1] stood at 82 nM; in test [2] it was 204 nM; in test [3] it was 4 nM; in test [4] it was 297 nM.
Consider `COc1ccc2[nH]c([S+]([O-])Cc3ncc(C)c(OC)c3C)nc2c1` (configuration not stated) [H-168/68], for which the Kd in test [2] is 49000 nM; in test [3], 212 nM; in test [4], 1670 nM.

As a reminder, the Kd is a measure of binding affinity in units of concentration. High values mean weaker binding, low ones tighter binding.
